What was measured:
[1] = target: P-gp (Homo sapiens, UniProt P08183); assay: P-gp inhibition in Caco-2 cells; type: in vitro ADME; conditions: up to 10 μM
[2] = target: T1, human BCRP (Homo sapiens, UniProt Q9UNQ0); assay: BCRP transportation in inside-out vesicles; type: in vitro ADME; conditions: uptake ratio ≥2-fold indicates substrate
T1 sequence (Q9UNQ0 1-655): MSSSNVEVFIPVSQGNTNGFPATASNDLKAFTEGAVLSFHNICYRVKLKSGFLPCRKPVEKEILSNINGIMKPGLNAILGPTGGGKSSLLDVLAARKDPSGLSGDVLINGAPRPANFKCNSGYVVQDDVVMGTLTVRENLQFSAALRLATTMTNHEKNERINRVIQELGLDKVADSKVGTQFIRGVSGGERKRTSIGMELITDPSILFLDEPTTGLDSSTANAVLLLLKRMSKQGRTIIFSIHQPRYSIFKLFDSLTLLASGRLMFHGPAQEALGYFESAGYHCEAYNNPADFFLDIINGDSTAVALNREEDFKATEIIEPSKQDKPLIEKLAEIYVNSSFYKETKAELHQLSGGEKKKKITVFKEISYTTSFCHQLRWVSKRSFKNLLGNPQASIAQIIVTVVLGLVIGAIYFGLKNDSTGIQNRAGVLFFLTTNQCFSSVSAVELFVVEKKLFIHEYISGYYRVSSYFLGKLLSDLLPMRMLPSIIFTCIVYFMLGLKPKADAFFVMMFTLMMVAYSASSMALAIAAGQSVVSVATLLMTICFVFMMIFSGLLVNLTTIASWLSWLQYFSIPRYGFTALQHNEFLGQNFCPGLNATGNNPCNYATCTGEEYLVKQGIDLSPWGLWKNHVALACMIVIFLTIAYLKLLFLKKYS

[3] = target: T1, human BCRP; assay: BCRP inhibition in vesicles; type: in vitro ADME; conditions: 0.05–5 µM
[4] = target: T2, OATP1B1 (Homo sapiens, UniProt Q9Y6L6); assay: SLC inhibition assay in HEK293 cells; type: in vitro ADME; conditions: 0.05–5 µM
T2 sequence (Q9Y6L6 1-691): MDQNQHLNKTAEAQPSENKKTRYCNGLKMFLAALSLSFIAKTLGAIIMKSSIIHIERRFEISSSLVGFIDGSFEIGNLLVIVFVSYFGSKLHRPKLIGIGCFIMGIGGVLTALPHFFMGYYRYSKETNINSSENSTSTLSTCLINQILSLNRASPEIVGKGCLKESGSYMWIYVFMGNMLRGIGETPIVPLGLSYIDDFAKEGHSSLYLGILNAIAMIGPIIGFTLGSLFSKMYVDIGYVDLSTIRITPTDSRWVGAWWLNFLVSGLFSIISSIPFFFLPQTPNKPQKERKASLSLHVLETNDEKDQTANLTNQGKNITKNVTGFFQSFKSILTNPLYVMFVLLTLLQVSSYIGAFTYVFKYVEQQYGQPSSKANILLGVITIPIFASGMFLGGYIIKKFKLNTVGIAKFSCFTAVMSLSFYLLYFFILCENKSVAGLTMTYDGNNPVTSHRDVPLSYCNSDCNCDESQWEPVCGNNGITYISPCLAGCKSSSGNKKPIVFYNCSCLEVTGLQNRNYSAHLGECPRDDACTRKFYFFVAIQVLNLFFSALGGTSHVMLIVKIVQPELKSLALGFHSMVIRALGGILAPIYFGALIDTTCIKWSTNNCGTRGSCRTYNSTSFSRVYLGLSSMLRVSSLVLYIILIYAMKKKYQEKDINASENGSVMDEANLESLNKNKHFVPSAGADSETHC

[5] = test system: CYP3A; conditions: cited from earlier work
[6] = test system: CYP1A2; assay: in vitro; conditions: human
[7] = target: T3, CYP2B6 (Homo sapiens, UniProt P20813); assay: Time-dependent CYP inhibition in HLMs; conditions: 10 µM zanubrutinib, 30 min pre-incubation with HLMs and NADPH
T3 sequence (P20813 1-491): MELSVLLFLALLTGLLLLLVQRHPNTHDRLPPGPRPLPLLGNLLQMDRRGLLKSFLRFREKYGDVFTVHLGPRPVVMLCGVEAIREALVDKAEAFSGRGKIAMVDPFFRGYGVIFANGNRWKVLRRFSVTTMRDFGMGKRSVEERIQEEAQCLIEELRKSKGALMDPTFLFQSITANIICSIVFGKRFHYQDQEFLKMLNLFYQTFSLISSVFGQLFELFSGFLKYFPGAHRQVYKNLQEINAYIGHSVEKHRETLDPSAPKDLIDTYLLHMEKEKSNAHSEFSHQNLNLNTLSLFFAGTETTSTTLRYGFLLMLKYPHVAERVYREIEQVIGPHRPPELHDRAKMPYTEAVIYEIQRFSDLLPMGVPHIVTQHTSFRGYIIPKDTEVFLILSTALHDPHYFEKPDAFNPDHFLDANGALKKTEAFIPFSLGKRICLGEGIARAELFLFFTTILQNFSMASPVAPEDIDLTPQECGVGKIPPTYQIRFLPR

[8] = target: rCYP3A4 (Homo sapiens, UniProt P08684); assay: CYP phenotyping with recombinant CYPs; conditions: 1 μM, only rCYP3A4 among 7 rCYPs
rCYP3A4, sequence (P08684 whole entry): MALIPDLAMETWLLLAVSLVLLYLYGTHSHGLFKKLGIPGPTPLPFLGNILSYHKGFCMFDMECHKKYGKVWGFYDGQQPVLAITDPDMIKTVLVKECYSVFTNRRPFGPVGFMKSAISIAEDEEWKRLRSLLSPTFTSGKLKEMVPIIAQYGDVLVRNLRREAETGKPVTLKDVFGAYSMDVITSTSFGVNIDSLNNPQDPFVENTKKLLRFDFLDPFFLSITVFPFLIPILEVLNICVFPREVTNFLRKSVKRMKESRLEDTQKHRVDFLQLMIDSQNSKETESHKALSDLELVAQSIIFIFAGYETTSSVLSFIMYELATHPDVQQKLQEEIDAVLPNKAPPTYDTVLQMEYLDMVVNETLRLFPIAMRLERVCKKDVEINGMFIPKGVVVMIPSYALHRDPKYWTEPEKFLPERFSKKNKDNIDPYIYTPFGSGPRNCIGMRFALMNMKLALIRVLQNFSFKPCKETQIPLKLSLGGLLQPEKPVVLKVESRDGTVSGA

[9] = target: T4, OAT1 (Homo sapiens, UniProt Q4U2R8); assay: SLC transportation assay in HEK293 cells; conditions: uptake ratios <2 at 0.1, 0.3, 5 µM
T4 sequence (Q4U2R8 1-563): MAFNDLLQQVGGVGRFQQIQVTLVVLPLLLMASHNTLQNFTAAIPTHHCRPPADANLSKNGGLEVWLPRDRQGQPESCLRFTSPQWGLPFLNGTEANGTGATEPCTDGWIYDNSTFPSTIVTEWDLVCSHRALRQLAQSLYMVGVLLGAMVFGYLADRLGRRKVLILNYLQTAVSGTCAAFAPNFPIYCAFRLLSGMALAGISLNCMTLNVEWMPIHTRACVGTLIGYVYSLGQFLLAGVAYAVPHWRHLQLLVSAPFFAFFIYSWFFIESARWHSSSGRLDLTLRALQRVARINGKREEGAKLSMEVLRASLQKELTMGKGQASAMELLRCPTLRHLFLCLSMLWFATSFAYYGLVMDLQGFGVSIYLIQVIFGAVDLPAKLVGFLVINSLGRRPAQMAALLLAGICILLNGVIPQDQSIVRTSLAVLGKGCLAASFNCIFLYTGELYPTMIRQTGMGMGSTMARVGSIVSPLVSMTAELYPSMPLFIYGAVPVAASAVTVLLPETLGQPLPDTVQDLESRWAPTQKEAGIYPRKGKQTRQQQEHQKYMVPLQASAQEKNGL

P-gp, sequence (P08183 whole entry): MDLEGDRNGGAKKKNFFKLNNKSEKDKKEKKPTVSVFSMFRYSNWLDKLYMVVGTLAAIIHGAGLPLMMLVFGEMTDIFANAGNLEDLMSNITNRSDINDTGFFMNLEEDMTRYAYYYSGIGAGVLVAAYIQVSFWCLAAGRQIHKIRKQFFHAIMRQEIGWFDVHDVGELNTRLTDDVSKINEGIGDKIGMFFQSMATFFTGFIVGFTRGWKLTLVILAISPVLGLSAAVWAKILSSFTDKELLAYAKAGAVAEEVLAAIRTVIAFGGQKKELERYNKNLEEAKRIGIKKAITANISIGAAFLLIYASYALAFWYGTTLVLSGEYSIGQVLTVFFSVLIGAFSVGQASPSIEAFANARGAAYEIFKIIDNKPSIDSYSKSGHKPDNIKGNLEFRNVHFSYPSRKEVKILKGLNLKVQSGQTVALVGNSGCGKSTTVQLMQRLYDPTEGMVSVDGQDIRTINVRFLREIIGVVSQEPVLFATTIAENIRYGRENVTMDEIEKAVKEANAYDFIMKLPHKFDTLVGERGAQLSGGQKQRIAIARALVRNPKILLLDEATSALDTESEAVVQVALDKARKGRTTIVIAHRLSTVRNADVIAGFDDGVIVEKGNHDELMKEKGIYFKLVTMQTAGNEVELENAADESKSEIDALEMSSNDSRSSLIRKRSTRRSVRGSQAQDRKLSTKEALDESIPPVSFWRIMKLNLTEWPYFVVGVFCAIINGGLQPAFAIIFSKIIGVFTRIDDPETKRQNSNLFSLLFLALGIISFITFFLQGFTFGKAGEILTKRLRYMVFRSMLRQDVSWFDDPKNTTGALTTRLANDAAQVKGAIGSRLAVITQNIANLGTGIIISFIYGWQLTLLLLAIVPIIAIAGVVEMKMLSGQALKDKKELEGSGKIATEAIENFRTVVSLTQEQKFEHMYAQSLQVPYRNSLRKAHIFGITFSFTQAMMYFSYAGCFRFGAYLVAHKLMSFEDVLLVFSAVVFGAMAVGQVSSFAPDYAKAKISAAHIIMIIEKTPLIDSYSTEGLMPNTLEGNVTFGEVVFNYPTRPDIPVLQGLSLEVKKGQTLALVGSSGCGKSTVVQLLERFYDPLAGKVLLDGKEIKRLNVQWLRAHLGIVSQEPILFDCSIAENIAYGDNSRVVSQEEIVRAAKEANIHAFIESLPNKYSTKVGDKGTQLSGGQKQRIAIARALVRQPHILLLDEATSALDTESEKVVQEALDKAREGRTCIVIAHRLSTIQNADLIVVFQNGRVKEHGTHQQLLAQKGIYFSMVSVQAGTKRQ

C=CC(=O)N1CCC([C@@H]2CCNc3c(C(N)=O)c(-c4ccc(Oc5ccccc5)cc4)nn32)CC1 [zanubrutinib]
P-gp inhibitor status [1]: not a significant inhibitor of P‐gp
BCRP substrate status [2]: unlikely to be a substrate
BCRP inhibition [3]: did not inhibit BCRP activity
Inhibition of uptake activity [4]: not inhibited
Reduction in AUC0‐inf of zanubrutinib ([5]; co-administered with CYP3A inducer rifampin): 13.5 fold
Increase in AUC0‐inf of zanubrutinib ([5]; co-administered with CYP3A inhibitor itraconazole): 3.8 fold
EC50 at 2 days [6]: 290 nM
Percent loss of enzymatic activity [7]: 15.5%
Disappearance of zanubrutinib with recombinant CYP [8]: remarkable disappearance
Substrate status [9]: unlikely to be a substrate

Reference: article PMC8524670 (Pharmacology Research & Perspectives, 2021)
